Results published in PubChem BioAssay AID2060903 (Molecular Pharmacology Branch, DTP, NCI, 2025).
Each block holds one compound with its values, some of them ahead of it.

Test system: 377384-186-R-J1-PDC complex spheroid viability
Experiment: Anticancer human tumor 377384-186-R-J1-PDC patient-derived pancreatic carcinoma cell line growth inhibition [RAS]
Conditions: for IC50: curve of first compound; for viability, T/C: stronger effect = lower value
Procedure, shortened: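 Tumour cells grown as complex spheroids with HUVEC endothelial cells and mesenchymal stem cells, treated with RAS pathway inhibitor combinations. Each agent spans half-log steps from near clinical Cmax, or 10 microM where Cmax is unknown.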

[1] = second compound 0.00316 µM, first compound 0.0316 µM
[2] = second compound 0.00316 µM, first compound 0.1 µM
[3] = second compound 0.00316 µM, first compound 0.316 µM
[4] = second compound 0.00316 µM, first compound 1 µM
[5] = second compound 0.00316 µM, first compound 3.16 µM
[6] = second compound 0.00316 µM, first compound 10 µM
[7] = second compound 0.01 µM, first compound 0.0316 µM
[8] = second compound 0.01 µM, first compound 0.1 µM
[9] = second compound 0.01 µM, first compound 0.316 µM
[10] = second compound 0.01 µM, first compound 1 µM
[11] = second compound 0.01 µM, first compound 3.16 µM
[12] = second compound 0.01 µM, first compound 10 µM
[13] = second compound 0.0316 µM, first compound 0.0316 µM
[14] = second compound 0.0316 µM, first compound 0.1 µM
[15] = second compound 0.0316 µM, first compound 0.316 µM
[16] = second compound 0.0316 µM, first compound 1 µM
[17] = second compound 0.0316 µM, first compound 3.16 µM
[18] = second compound 0.0316 µM, first compound 10 µM
[19] = second compound 0.1 µM, first compound 0.0316 µM
[20] = second compound 0.1 µM, first compound 0.1 µM
[21] = second compound 0.1 µM, first compound 0.316 µM
[22] = second compound 0.1 µM, first compound 1 µM
[23] = second compound 0.1 µM, first compound 3.16 µM
[24] = second compound 0.1 µM, first compound 10 µM
[25] = second compound 0.316 µM, first compound 0.0316 µM
[26] = second compound 0.316 µM, first compound 0.1 µM
[27] = second compound 0.316 µM, first compound 0.316 µM
[28] = second compound 0.316 µM, first compound 1 µM
[29] = second compound 0.316 µM, first compound 3.16 µM
[30] = second compound 0.316 µM, first compound 10 µM
[31] = second compound 1 µM, first compound 0.0316 µM
[32] = second compound 1 µM, first compound 0.1 µM
[33] = second compound 1 µM, first compound 0.316 µM
[34] = second compound 1 µM, first compound 1 µM
[35] = second compound 1 µM, first compound 3.16 µM
[36] = second compound 1 µM, first compound 10 µM
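Also: spheroids exposed to compounds for seven days before readout.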

IC50 (second compound 0.00316 µM): 1580 nM
IC50 (second compound 0.01 µM): 1650 nM
IC50 (second compound 0.0316 µM): 1700 nM
IC50 (second compound 0.1 µM): 1720 nM
IC50 (second compound 0.316 µM): 1720 nM
IC50 (second compound 1 µM): 1770 nM
Structure (SMILES): CCC(CC)c1cc(NC2CCC(N)C2)n2nccc2n1 (stereo unspecified) + C=CC(=O)N1CCN(c2nc(OCC3CCCN3C)nc3c(F)c(-c4nc(N)cc(C)c4C(F)(F)F)c(Cl)cc23)C(C)C1
viability, T/C [1]: 98%
viability, T/C [2]: 100%
viability, T/C [3]: 109%
viability, T/C [4]: 80.4%
viability, T/C [5]: 2.73%
viability, T/C [6]: 4.78%
viability, T/C [7]: 106%
viability, T/C [8]: 100%
viability, T/C [9]: 110%
viability, T/C [10]: 86.5%
viability, T/C [11]: 2.18%
viability, T/C [12]: 3.83%
viability, T/C [13]: 107%
viability, T/C [14]: 88.6%
viability, T/C [15]: 124%
viability, T/C [16]: 89.4%
viability, T/C [17]: 2.68%
viability, T/C [18]: 4.52%
viability, T/C [19]: 101%
viability, T/C [20]: 97.9%
viability, T/C [21]: 112%
viability, T/C [22]: 91.3%
viability, T/C [23]: 2.71%
viability, T/C [24]: 5.16%
viability, T/C [25]: 101%
viability, T/C [26]: 102%
viability, T/C [27]: 101%
viability, T/C [28]: 90.3%
viability, T/C [29]: 3.2%
viability, T/C [30]: 6.46%
viability, T/C [31]: 94.4%
viability, T/C [32]: 95.8%
viability, T/C [33]: 96.8%
viability, T/C [34]: 94.6%
viability, T/C [35]: 3.19%
viability, T/C [36]: 6.78%

IC50 (second compound 0.00316 µM): 210 nM
IC50 (second compound 0.01 µM): 181 nM
IC50 (second compound 0.0316 µM): 152 nM
IC50 (second compound 0.1 µM): 210 nM
IC50 (second compound 0.316 µM): 223 nM
IC50 (second compound 1 µM): 306 nM
Structure (SMILES): CCN1CCN(Cc2ccc(Nc3ncc(F)c(-c4cc(F)c5nc(C)n(C(C)C)c5c4)n3)nc2)CC1 + C=CC(=O)N1CCN(c2nc(OCC3CCCN3C)nc3c(F)c(-c4nc(N)cc(C)c4C(F)(F)F)c(Cl)cc23)C(C)C1
viability, T/C (second compound 0.00316 µM, first compound 0.00316 µM): 87.5%
viability, T/C (second compound 0.00316 µM, first compound 0.01 µM): 77.2%
viability, T/C [1]: 68.7%
viability, T/C [2]: 56.6%
viability, T/C [3]: 45.4%
viability, T/C [4]: 40.4%
viability, T/C (second compound 0.01 µM, first compound 0.00316 µM): 91.4%
viability, T/C (second compound 0.01 µM, first compound 0.01 µM): 79.8%
viability, T/C [7]: 73.3%
viability, T/C [8]: 52.1%
viability, T/C [9]: 46.8%
viability, T/C [10]: 40.2%
viability, T/C (second compound 0.0316 µM, first compound 0.00316 µM): 89.4%
viability, T/C (second compound 0.0316 µM, first compound 0.01 µM): 81.8%
viability, T/C [13]: 73.6%
viability, T/C [14]: 53.6%
viability, T/C [15]: 42.5%
viability, T/C [16]: 36.6%
viability, T/C (second compound 0.1 µM, first compound 0.00316 µM): 82.1%
viability, T/C (second compound 0.1 µM, first compound 0.01 µM): 78%
viability, T/C [19]: 70.7%
viability, T/C [20]: 59%
viability, T/C [21]: 44.6%
viability, T/C [22]: 38.7%
viability, T/C (second compound 0.316 µM, first compound 0.00316 µM): 85.6%
viability, T/C (second compound 0.316 µM, first compound 0.01 µM): 79.2%
viability, T/C [25]: 77%
viability, T/C [26]: 58.9%
viability, T/C [27]: 46.3%
viability, T/C [28]: 39.8%
viability, T/C (second compound 1 µM, first compound 0.00316 µM): 95.1%
viability, T/C (second compound 1 µM, first compound 0.01 µM): 75.4%
viability, T/C [31]: 73.6%
viability, T/C [32]: 57.5%
viability, T/C [33]: 46.1%
viability, T/C [34]: 45.9%

IC50 (second compound 0.00316 µM): > 10000 nM
IC50 (second compound 0.01 µM): > 10000 nM
IC50 (second compound 0.0316 µM): > 10000 nM
IC50 (second compound 0.1 µM): > 10000 nM
IC50 (second compound 0.316 µM): > 10000 nM
IC50 (second compound 1 µM): > 10000 nM
Structure (SMILES): C[C@@H](NC(=O)c1ncnc(N)c1Cl)c1ncc(C(=O)Nc2cc(C(F)(F)F)c(Cl)cn2)s1 + C=CC(=O)N1CCN(c2nc(OCC3CCCN3C)nc3c(F)c(-c4nc(N)cc(C)c4C(F)(F)F)c(Cl)cc23)C(C)C1
viability, T/C [1]: 90%
viability, T/C [2]: 85.2%
viability, T/C [3]: 83.8%
viability, T/C [4]: 108%
viability, T/C [5]: 120%
viability, T/C [6]: 122%
viability, T/C [7]: 98.5%
viability, T/C [8]: 86.3%
viability, T/C [9]: 102%
viability, T/C [10]: 118%
viability, T/C [11]: 122%
viability, T/C [12]: 131%
viability, T/C [13]: 98.4%
viability, T/C [14]: 87.8%
viability, T/C [15]: 101%
viability, T/C [16]: 118%
viability, T/C [17]: 116%
viability, T/C [18]: 130%
viability, T/C [19]: 84%
viability, T/C [20]: 103%
viability, T/C [21]: 92.3%
viability, T/C [22]: 115%
viability, T/C [23]: 120%
viability, T/C [24]: 124%
viability, T/C [25]: 98.3%
viability, T/C [26]: 87.1%
viability, T/C [27]: 119%
viability, T/C [28]: 115%
viability, T/C [29]: 143%
viability, T/C [30]: 134%
viability, T/C [31]: 93.9%
viability, T/C [32]: 109%
viability, T/C [33]: 110%
viability, T/C [34]: 115%
viability, T/C [35]: 122%
viability, T/C [36]: 118%
